# Tested on: SKBR3 cells
# Assay: Plasma membrane tension and bending modulus mapping from MAxSIM height fluctuation data in live cells
# Format: cell-based
# Conditions: 5 μM for 30 minutes, FIG. 12C
# Text: Analysis of single-pixel-level plasma membrane biomechanics in live cells using the time-dependent membrane heights acquired by MAxSIM imaging: Utilizing MAxSIM technology, we mapped the membrane tension and bending modulus of plasma membranes in MCF7 cells (low HER2 expression) and SKBR3 (HER2 overexpression enabling constitutive HER2 activity). […] This approach, based on the Helfrich-Canham model, has been commonly employed in the literature, allowing the membrane tension (o) and bending modulus (K) to be linked to height fluctuations by the following equation.
# where ? |h(q)|^2 ? represents the power spectral density of the membrane height fluctuations, q is the wave vector, kbT is the thermal energy, σ is the membrane tension, and κ is the bending modulus. From fitting the raw experimental data to this function, membrane tension (σ) and bending modulus (κ) are extracted (FIGS. 12A, 12B, 12C). To identify mechanical compartments, we will utilize and compare various cluster analysis methods we have tested, including K-means analysis, which groups similar data points into K clusters based on their proximity to cluster centers, and DBscan, a density-based clustering algorithm that groups data points based on their proximity.
# 1. Super-resolution imaging and single-molecule-tracking tools and mechanical property measurements: a. […]
compound,measurement,value
C/C1=C/C(=O)O[C@@H]2C[C@@H](CC[C@H](C)/C=C\C=C\CC1)O[C@@](O)([C@@H]1CSC(=O)N1)C2 [latrunculin A],mechanical compartmentalization (membrane tension and bending modulus) on the basal plasma membrane,significant reduction
